These results are taken from patent publication US11613531B2, “Inhibitors of RHO associated coiled-coil containing protein kinase” (Kadmon Corporation, LLC, priority 2017, dated 2023).

Read-outs that look alike come from different tables or passages of the source.

Experiment [1] addresses Recombinant ROCK2 (amino acids 1-552) (Homo sapiens (Human), UniProt O75116). As to the kind of experiment: Z′-Lyte kinase assay, ROCK2. It is filed as biochemical. Conditions: for inhibition at 3 µM: 3 μM compound; for inhibition at 0.5 µM: 0.5 μM compound. An outline of the steps: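 IC50s derive from nonlinear curve fits over a 9-point, 2-fold dilution series, with single-point inhibition at 1 μM expressed relative to DMSO. Activity of truncated human ROCK1 (residues 1-535) and ROCK2 (residues 1-552) measured with the Z′-Lyte kinase format.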

For experiment [2], the system named is ppMlc (T18/S19) levels in A7R5 cells. Nature of the experiment: A7R5 in-cell ELISA (pMLC). It is filed as cell-based, Rat. Conditions: Rattus norvegicus, A7R5, A7R5 cells; for inhibition at 10 µM: 10 μM compound; for inhibition at 10 µM / inhibition at 1 µM: read-out: pMLC % inh A7R5 @ [conc]; for inhibition at 1 µM: 1 μM compound. An outline of the steps:
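Cellular IC50 came from a nonlinear regression fit of ppMlc (T18/S19) signal, read by colorimetric in-cell ELISA on fixed cells. Rat A7R5 aortic smooth muscle cells had been exposed for 90 min to compounds in 9-point 2-fold serial dilution, 24 h after seeding.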
For orientation: An ELISA detects its analyte on a solid surface through an enzyme-linked reagent.

Experiment [3] addresses Recombinant ROCK1 (amino acids 1-535) (Homo sapiens (Human), UniProt Q13464). As to the kind of experiment: Z′-Lyte kinase assay, ROCK1. It is filed as biochemical. The following applies: for inhibition at 3 µM: 3 μM compound; for inhibition at 3 µM / inhibition at 0.5 µM: read-out: ROCK1 % inh. @ [conc]; for inhibition at 0.5 µM: 0.5 μM compound. As for the experimental part: Determination of Compound's ROCK Inhibitory Activity In Vitro (Z'Lyte Assay).
Recombinant ROCK1 (amino acids 1-535) and ROCK2 (amino acids 1-552) proteins were purchased from ThermoFisher Scientific. Compound's activities were measured by Z′-lyte kinase kit (ThermoFisher Scientific) and IC50 was calculated
In vitro activities for the compounds were measured with Z′-lyte kinase kit (ThermoFisher Scientific). The percent inhibition rate was calculated by normalizing the kinase activity value obtained with 1 μM compound treatment against DMSO control value and then applied to the formula, [1-(compound/DMSO)]×100%. IC50s were calculated using the nonlinear regression curve fit function of the GraphPad Prism software with kinase activities data measured with 9 points 2-fold serial dilution of compounds treatment. In cell pMLC IC50s were calculated with data obtained from A7R5 cell experiments. A7R5 cells were treated with 9 points 2-fold serial dilution of compounds and ppMlc (T18/S19) levels were determined to calculate cellular IC50 values of the compounds using the nonlinear regression curve fit function of the GraphPad Prism software. NIH3T3 cells stably expressing ACTA2-promoter-driven-luciferase were applied to measure ROCK compounds functional IC50s in cells. Cells were plated in 96 well plates to confluence and treated with 9 points serial dilution of compounds in combination with TGFβ1 for 24 hr. Luciferase activities were measured and compound's IC50s were calculated using the nonlinear regression curve fit function of the GraphPad Prism software.

The mark [4] stands for this setting: read-out: ROCK2 % inh. @ [conc].
Setting [5] is: 9 points 2-fold serial dilution.

Sequence of Recombinant ROCK1 (amino acids 1-535) (Q13464 1-535): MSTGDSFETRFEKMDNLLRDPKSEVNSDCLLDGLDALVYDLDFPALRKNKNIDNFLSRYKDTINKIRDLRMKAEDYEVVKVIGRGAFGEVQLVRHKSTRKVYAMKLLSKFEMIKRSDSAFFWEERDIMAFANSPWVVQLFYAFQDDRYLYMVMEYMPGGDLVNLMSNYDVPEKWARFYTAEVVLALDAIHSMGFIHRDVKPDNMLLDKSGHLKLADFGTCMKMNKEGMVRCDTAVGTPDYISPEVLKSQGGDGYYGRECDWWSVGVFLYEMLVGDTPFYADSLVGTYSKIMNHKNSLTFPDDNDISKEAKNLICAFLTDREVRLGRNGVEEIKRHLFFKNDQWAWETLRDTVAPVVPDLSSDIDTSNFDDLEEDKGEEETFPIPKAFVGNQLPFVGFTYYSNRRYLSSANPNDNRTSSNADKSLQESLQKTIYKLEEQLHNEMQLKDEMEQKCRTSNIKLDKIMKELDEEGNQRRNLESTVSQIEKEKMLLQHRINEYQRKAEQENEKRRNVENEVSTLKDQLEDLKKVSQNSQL
Sequence of Recombinant ROCK2 (amino acids 1-552) (O75116 1-552): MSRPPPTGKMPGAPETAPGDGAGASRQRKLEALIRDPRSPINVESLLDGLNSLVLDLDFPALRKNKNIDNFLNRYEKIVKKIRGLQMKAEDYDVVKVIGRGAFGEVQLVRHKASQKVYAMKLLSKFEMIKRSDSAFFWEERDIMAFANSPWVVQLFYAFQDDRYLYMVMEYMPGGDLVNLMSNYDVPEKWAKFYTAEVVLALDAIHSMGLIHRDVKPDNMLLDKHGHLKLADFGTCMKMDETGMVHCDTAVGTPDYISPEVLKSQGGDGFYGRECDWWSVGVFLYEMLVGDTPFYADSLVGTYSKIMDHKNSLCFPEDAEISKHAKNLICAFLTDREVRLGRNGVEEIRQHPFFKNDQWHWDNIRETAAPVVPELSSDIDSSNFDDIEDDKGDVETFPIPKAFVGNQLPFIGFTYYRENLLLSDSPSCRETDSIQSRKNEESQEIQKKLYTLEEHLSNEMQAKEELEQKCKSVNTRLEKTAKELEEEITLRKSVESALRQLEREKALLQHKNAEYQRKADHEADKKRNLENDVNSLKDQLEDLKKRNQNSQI

For orientation: IC50 means the concentration needed to halve the response being measured. As for `Cc1cc(Nc2ccc3[nH]ncc3c2)nc(N2CCCNCC2)n1` [Example 5, N-(2-(1,4-diazepan-1-yl)-6-methylpyrimidin-4-yl)-1H-indazol-5-amine], the results for the inhibition at 3 µM in experiment [1] (setting [4]) and in experiment [3] were 102% and 98.3%, respectively. For the same compound, the figures for the IC50 in experiment [1] (setting [5]) and in experiment [2] (ppMlc (T18/S19)) were 54 nM and 63 nM, respectively. Moreover, the inhibition at 10 µM in experiment [2] was 86%.

In the case of `COc1cnc(N2CCCNCC2)nc1Nc1ccc2[nH]ncc2c1` [Example 7, N-(2-(1,4-diazepan-1-yl)-5-methoxypyrimidin-4-yl)-1H-indazol-5-amine], the inhibition at 1 µM in experiment [1] (1 μM compound, read-out: ROCK2 % inh. @ [conc]) amounted to 96%. Further, the IC50 in experiment [1] (setting [5]) worked out at 107 nM; in experiment [2] (ppMlc (T18/S19)), 460 nM; in experiment [3] (setting [5]), 65 nM. Further, the inhibition at 10 µM in experiment [2] was found to be 98.3%.

`c1cc2nc(N3CCCNCC3)nc(Nc3ccc4[nH]ncc4c3)c2s1` [Example 10, 2-(1,4-diazepan-1-yl)-N-(1H-indazol-5-yl)thieno[3,2-d]pyrimidin-4-amine]: the results for the inhibition at 0.5 µM in experiment [1] (setting [4]) and in experiment [3] were 98% and 94%, respectively. Besides, the results for the IC50 in experiment [1] (setting [5]) and in experiment [2] (ppMlc (T18/S19)) were 20 nM and 565 nM, respectively. Further, in experiment [2], the inhibition at 10 µM turned out to be 90%.

On to `c1cc2[nH]ncc2cc1Nc1nc(N2CCCNCC2)nc2c1COC2` [Example 11, 2-(1,4-diazepan-1-yl)-N-(1H-indazol-5-yl)-5,7-dihydrofuro[3,4-d]pyrimidin-4-amine], for which the inhibition at 0.5 µM in experiment [1] (setting [4]) amounted to 93%; in experiment [3], 76%. In addition, the figures for the IC50 in experiment [1] (setting [5]) and in experiment [2] (ppMlc (T18/S19)) were 31 nM and 1120 nM, respectively. Also, the inhibition at 10 µM in experiment [2] was 89%.

Consider `c1ccc(C2CN(c3nccc(Nc4ccc(-c5ccncc5)cc4)n3)CCCN2)cc1` (centres unmarked) [Example 18, 2-(3-phenyl-1,4-diazepan-1-yl)-N-(4-(pyridin-4-yl)phenyl)pyrimidin-4-amine], for which the IC50 stood at 206 nM in experiment [1] (setting [5]) and 332 nM in experiment [3] (setting [5]). Moreover, in experiment [2], the inhibition at 10 µM is 11%.

`c1cc(Nc2ccc3[nH]ncc3c2)nc(N2CCNCC2)n1` [Example 34, N-(2-(piperazin-1-yl)pyrimidin-4-yl)-1H-indazol-5-amine]: the IC50 was 29 nM in experiment [1], 393 nM in experiment [2] and 31 nM in experiment [3]. In addition, the inhibition at 3 µM was 101% in experiment [1] (setting [4]) and 102% in experiment [3]. Further, in experiment [2], the inhibition at 10 µM came out at 62.4%.

As to `c1cc(Nc2ccc3[nH]ncc3c2)nc(N2CCCNCC2)n1` [Example 35, N-(2-(1,4-diazepan-1-yl)pyrimidin-4-yl)-1H-indazol-5-amine], the half-maximal inhibitory concentration (IC50) is 15 nM in experiment [1], 416 nM in experiment [2] and 16 nM in experiment [3]. Besides, the results for the inhibition at 3 µM in experiment [1] (setting [4]) and in experiment [3] were 98.9% and 100%, respectively. Besides, the inhibition at 10 µM in experiment [2] was 68.1%.

For `c1cc2[nH]ncc2cc1Nc1nc(N2CC3CCC(C2)N3)nc2c1COC2` [Example 39, 2-(3,8-diazabicyclo[3.2.1]octan-3-yl)-N-(1H-indazol-5-yl)-5,7-dihydrofuro[3,4-d]pyrimidin-4-amine], the inhibition at 0.5 µM in experiment [1] (setting [4]) is 64%; in experiment [3] it was 67%. The inhibition at 1 µM in experiment [2] was 6.6%.

Take `CC1CN(c2nccc(Nc3ccc(-c4ccncc4)cc3)n2)CCCN1` (centres unmarked) [Example 43, 2-(3-methyl-1,4-diazepan-1-yl)-N-(4-(pyridin-4-yl)phenyl)pyrimidin-4-amine]: the inhibition at 3 µM came out at 98.8% in experiment [1] (setting [4]) and 99% in experiment [3]. Further, the IC50 turned out to be 120 nM in experiment [1] (setting [5]), 730 nM in experiment [2] (ppMlc (T18/S19)) and 135 nM in experiment [3] (setting [5]).

Regarding `CC1CCN(c2nccc(Nc3ccc(-c4ccncc4)cc3)n2)CCN1` (centres unmarked) [Example 45, 2-(5-methyl-1,4-diazepan-1-yl)-N-(4-(pyridin-4-yl)phenyl)pyrimidin-4-amine], the inhibition at 3 µM in experiment [1] (setting [4]) was found to be 98.8%; in experiment [3] it was 99%. In addition, the IC50 in experiment [1] (setting [5]) amounted to 649 nM; in experiment [2] (ppMlc (T18/S19)) it was 2120 nM; in experiment [3] (setting [5]) it was 307 nM.

Consider `CC1CCN(c2nccc(Nc3ccc4[nH]ncc4c3)n2)CCN1` (centres unmarked) [Example 57, N-(2-(5-methyl-1,4-diazepan-1-yl)pyrimidin-4-yl)-1H-indazol-5-amine], for which the inhibition at 3 µM in experiment [1] (setting [4]) amounted to 93.4%; in experiment [3] it was 17.4%. The inhibition at 10 µM in experiment [2] is 60.6%. Further, in experiment [2] (ppMlc (T18/S19)), the IC50 was found to be 1220 nM.

Take `CCC1CN(c2nccc(Nc3ccc4[nH]ncc4c3)n2)CCN1` (centres unmarked) [Example 58, N-(2-(3-ethylpiperazin-1-yl)pyrimidin-4-yl)-1H-indazol-5-amine]: the inhibition at 3 µM in experiment [1] (setting [4]) amounted to 98.8%; in experiment [3] it was 99%. Further, the IC50 turned out to be 144 nM in experiment [1] (setting [5]), 1080 nM in experiment [2] (ppMlc (T18/S19)) and 192 nM in experiment [3] (setting [5]).

`CC(C)C1CN(c2nccc(Nc3ccc4[nH]ncc4c3)n2)CCN1` (centres unmarked) [Example 59, N-(2-(3-isopropylpiperazin-1-yl)pyrimidin-4-yl)-1H-indazol-5-amine]: the inhibition at 3 µM in experiment [1] (setting [4]) and in experiment [3] was 100% each time. Also, the figures for the concentration for half-maximal inhibition (IC50) in experiment [1] (setting [5]), in experiment [2] (ppMlc (T18/S19)) and in experiment [3] (setting [5]) were 902 nM, 4780 nM and 671 nM, respectively.

On to `CCC1CCN(c2nccc(Nc3ccc4[nH]ncc4c3)n2)CCN1` (centres unmarked) [Example 60, N-(2-(5-ethyl-1,4-diazepan-1-yl)pyrimidin-4-yl)-1H-indazol-5-amine], for which the inhibition at 3 µM in experiment [1] (setting [4]) and in experiment [3] was 100% each time. Further, the IC50 in experiment [1] (setting [5]) was 450 nM; in experiment [2] (ppMlc (T18/S19)) it was 3440 nM; in experiment [3] (setting [5]), 660 nM.

Turning to `CC(C)C1CCN(c2nccc(Nc3ccc4[nH]ncc4c3)n2)CCN1` (centres unmarked) [Example 61, N-(2-(5-isopropyl-1,4-diazepan-1-yl)pyrimidin-4-yl)-1H-indazol-5-amine], the inhibition at 3 µM in experiment [1] (setting [4]) and in experiment [3] was 100% each time. Besides, the IC50 is over 1000 nM in experiment [1] (setting [5]), 8170 nM in experiment [2] (ppMlc (T18/S19)) and over 1000 nM in experiment [3] (setting [5]).

`CCC1CN(c2nccc(Nc3ccc4[nH]ncc4c3)n2)CCCN1` (centres unmarked) [Example 62, N-(2-(3-ethyl-1,4-diazepan-1-yl)pyrimidin-4-yl)-1H-indazol-5-amine]: the inhibition at 3 µM in experiment [1] (setting [4]) and in experiment [3] was 100% each time. Moreover, the figures for the IC50 in experiment [1] (setting [5]), in experiment [2] (ppMlc (T18/S19)) and in experiment [3] (setting [5]) were 177 nM, 1300 nM and 179 nM, respectively.

In the case of `c1ccc(C2CCN(c3nccc(Nc4ccc5[nH]ncc5c4)n3)CCN2)cc1` (centres unmarked) [Example 63, N-(2-(5-phenyl-1,4-diazepan-1-yl)pyrimidin-4-yl)-1H-indazol-5-amine], the inhibition at 3 µM in experiment [1] (setting [4]) and in experiment [3] was 100% each time. The IC50 in experiment [1] (setting [5]) is over 1000 nM; in experiment [2] (ppMlc (T18/S19)), 25100 nM; in experiment [3] (setting [5]) it was over 1000 nM.

Regarding `c1ccc(C2CN(c3nccc(Nc4ccc5[nH]ncc5c4)n3)CCCN2)cc1` (centres unmarked) [Example 64, N-(2-(3-phenyl-1,4-diazepan-1-yl)pyrimidin-4-yl)-1H-indazol-5-amine], the IC50 in experiment [1] (setting [5]) was 240 nM; in experiment [2] (ppMlc (T18/S19)) it was 1040 nM; in experiment [3] (setting [5]) it was 325 nM. In experiment [2], the inhibition at 10 µM was 63.9%.

For `CC(C)C1CN(c2nccc(Nc3ccc4[nH]ncc4c3)n2)CCCN1` (centres unmarked) [Example 65, N-(2-(3-isopropyl-1,4-diazepan-1-yl)pyrimidin-4-yl)-1H-indazol-5-amine], the IC50 is 353 nM in experiment [1] (setting [5]), 1980 nM in experiment [2] (ppMlc (T18/S19)) and 98 nM in experiment [3] (setting [5]). For the same compound, in experiment [2], the inhibition at 10 µM worked out at 47.8%.

For `CCCC1CNCCN1c1nccc(Nc2ccc3[nH]ncc3c2)n1` (centres unmarked) [Example 69, N-(2-(2-propylpiperazin-1-yl)pyrimidin-4-yl)-1H-indazol-5-amine], the inhibition at 0.5 µM is 52% in experiment [1] (setting [4]) and 67% in experiment [3]. In experiment [2], the inhibition at 1 µM turned out to be 19.3%.

Take `Clc1cnc(N2CCNCC2)nc1Nc1ccc2[nH]ncc2c1` [Example 178, N-(5-chloro-2-(piperazin-1-yl)pyrimidin-4-yl)-1H-indazol-5-amine]: the IC50 was determined as 159 nM in experiment [1] (setting [5]), 706 nM in experiment [2] (ppMlc (T18/S19)) and 388 nM in experiment [3] (setting [5]). The inhibition at 10 µM in experiment [2] was 47.5%.

Regarding `CCC1CNCCN1c1ncc(Cl)c(Nc2ccc3[nH]ncc3c2)n1` (centres unmarked) [Example 187, N-(5-chloro-2-(2-ethylpiperazin-1-yl)pyrimidin-4-yl)-1H-indazol-5-amine], the IC50 in experiment [1] (setting [5]) is 111 nM; in experiment [2] (ppMlc (T18/S19)), 665 nM; in experiment [3] (setting [5]), 58 nM. The inhibition at 10 µM in experiment [2] stood at 59.8%.
